Patent US20040110802A1, “Antibacterial benzoic acid derivatives” (priority 2002, published 2004)
Values after ≈ are worked out from the molar mass of the structure shown.

Test system: SAUR 9218
Assay: MIC Test Method, standard agar dilution
Type: cell-based
Settings: agar dilution, Mueller Hinton agar, incubated overnight at 35° C.; lowest concentration that inhibits visible growth; read-out: SAUR 9218 MIC
Experimental: The in vitro MiCs of test compounds were determined by a standard agar dilution method. A stock drug solution of each analog was prepared in the preferred solvent, usually DMSO:H2O (1:3). Serial 2-fold dilutions of each sample are made using 1.0 ml aliquots of sterile distil]ed water. To each 1.0 ml aliquot of drug was added 9 ml of molten Mueller Hinton agar medium. The drug-supplemented agar was mixed, poured into 15×100 mm petri dishes, and allowed to solidify and dry prior to inoculation.
Vials of each of the test organisms are maintained frozen in the vapor phase of a liquid nitrogen freezer. Test cultures are grown overnight at 35° C. on the medium appropriate for the organism. Colonies are harvested with a sterile swab, and cell suspensions are prepared in Trypticase Soy broth (TSB) to equal the turbidity of a 0.5 McFamland standard. A 1:20 dilution of each suspension was made in TSB. The plates containing the drug supplemented agar are inoculated with a 0.001 ml drop of the cell suspension using a Steers replicator, yielding approximately 10^4 to 10^5 cells per spot. The plates are incubated overnight at 35° C.
Following incubation the Minimum Inhibitory Concentration (MIC μg/ml), the lowest concentration of drug that inhibits visible growth of the organism, was read and recorded.

| SMILES | MIC [µg/mL] |
| --- | --- |
| CC(C)n1c(C(=O)Nc2ccc(C#N)cc2C(=O)O)cc2ccccc21 | 2 (≈ 5.76 µM) |
| O=C(Nc1ccc(I)cc1C(=O)O)c1cnc(SCc2ccccc2)cn1 | 1 (≈ 2.04 µM) |
| CCC(C)Sc1ccc(C(=O)Nc2ccc(C#N)cc2C(=O)O)cn1 (stereo not shown) | 0.5 (≈ 1.41 µM) |
| N#Cc1ccc(NC(=O)c2cc(CCCC3CCCCC3)on2)c(C(=O)O)c1 | 0.25 (≈ 0.655 µM) |
| N#Cc1ccc(NC(=O)c2ccc(S(=O)(=O)N3CCc4cc(Cl)ccc43)nc2)c(C(=O)O)c1 | 2 (≈ 4.14 µM) |
| Cn1c(C(=O)Nc2ccc(C#N)cc2C(=O)O)cc2cccc(OCC(O)COCC(O)CO)c21 (stereo not shown) | 2 (≈ 4.14 µM) |
| O=C(O)c1cc(Br)ccc1NC(=O)c1nc(N2CCOCC2)ncc1Cl | > 128 |
| N#Cc1ccc(NC(=O)c2csc(SCc3ccccc3)n2)c(C(=O)O)c1 | 4 (≈ 10.1 µM) |
| CCCCCCSc1ccc(C(=O)Nc2ccc(Br)cc2C(=O)O)cn1 | 0.125 (≈ 0.286 µM) |
| CCCCn1c(C(=O)Nc2ccc(Cl)cc2C(=O)O)cc2ccccc21 | 4 (≈ 10.8 µM) |
| Cc1cc(C(=O)Nc2ccc(Br)cc2C(=O)O)c(C)o1 | > 128 |
| Cn1c(C(=O)Nc2ccc(C#N)cc2C(=O)O)cc2ccc(N(S(=O)(=O)c3cccs3)S(=O)(=O)c3cccs3)cc21 | 0.06 (≈ 0.0957 µM) |
| N#Cc1ccc(NC(=O)c2n[nH]c3ccccc23)c(C(=O)O)c1 | 16 (≈ 52.2 µM) |
| CCC1CCCCN1S(=O)(=O)c1cc(C(=O)Nc2ccc(C#N)cc2C(=O)O)sc1C (stereo not shown) | 2 (≈ 4.33 µM) |
| N#Cc1ccc(NC(=O)c2ccc(SCC3CC3)nc2)c(C(=O)O)c1 | 0.5 (≈ 1.41 µM) |
| N#Cc1ccc(NC(=O)c2cc3cccc(NC(=O)C4CCCCC4)c3[nH]2)c(C(=O)O)c1 | 2 (≈ 4.65 µM) |
| N#Cc1ccc(NC(=O)c2noc3cc(-c4cccc(CO)c4)ccc23)c(C(=O)O)c1 | 0.125 (≈ 0.302 µM) |
| CCC(CC)C(=O)Nc1cccc2cc(C(=O)Nc3ccc(C#N)cc3C(=O)O)[nH]c12 | 1 (≈ 2.39 µM) |
| COc1ccc2cc(C(=O)Nc3ccc(C#N)cc3C(=O)O)n(C)c2c1 | 0.5 (≈ 1.43 µM) |
| COc1ccc(-c2cc(C(=O)Nc3ccc(Cl)cc3C(=O)O)no2)cc1 | 0.25 (≈ 0.671 µM) |
| N#Cc1ccc(NC(=O)c2ccc(SCCCCN)nc2)c(C(=O)O)c1.O=C(O)C(F)(F)F | 2 |
| COCOCC(O)C(Cc1cnc(C(=O)Nc2ccc(Br)cc2C(=O)O)cn1)OC (stereo not shown) | 128 (≈ 264 µM) |
| N#Cc1ccc(NC(=O)c2cncc(SCc3ccccc3)n2)c(C(=O)O)c1 | 64 (≈ 164 µM) |

| SMILES | MIC [µg/mL] |
| --- | --- |
| N#Cc1ccc(NC(=O)c2noc3ccc([N+](=O)[O-])cc23)c(C(=O)O)c1 | 0.25 (≈ 0.71 µM) |
| O=C(O)c1cc(Br)ccc1NC(=O)c1nsc2ccccc12 | 1 (≈ 2.65 µM) |
| COc1ccccc1CC(=O)Nc1cccc2cc(C(=O)Nc3ccc(C#N)cc3C(=O)O)[nH]c12 | 0.5 (≈ 1.07 µM) |
| Cn1c(C(=O)Nc2ccc(C#N)cc2C(=O)O)cc2cccc(-c3ccccc3)c21 | 0.25 (≈ 0.632 µM) |
| COc1ccc(CC(=O)Nc2cccc3cc(C(=O)Nc4ccc(C#N)cc4C(=O)O)[nH]c23)cc1OC | 1 (≈ 2.01 µM) |
| N#Cc1cccc(-c2cnc(C(=O)Nc3ccc(Br)cc3C(=O)O)o2)c1 | 4 (≈ 9.7 µM) |
| O=C(O)c1cc(Br)ccc1NC(=O)c1cccc2c1CCN(Cc1ccccc1)S2(=O)=O | 8 (≈ 15.5 µM) |
| C[C@@H]1CCCC1Oc1ccccc1-c1cc(C(=O)Nc2ccc(C#N)cc2C(=O)O)no1 (stereo partly shown) | 0.125 (≈ 0.29 µM) |
| O=C(Nc1ccc(Br)cc1C(=O)O)c1cnc(CC(O)[C@H](O)CO)cn1 (stereo partly shown) | > 128 |
| Cc1sc(C(=O)Nc2ccc(C#N)cc2C(=O)O)cc1S(=O)(=O)N1CCCC1C (stereo not shown) | 8 (≈ 18.5 µM) |
| CCCCCCSc1ccc(C(=O)Nc2ccc(C#N)cc2C(=O)O)nn1 | 0.03 (≈ 0.078 µM) |
| O=C(Nc1ccc(Br)cc1C(=O)O)c1cccc(SCc2ccccc2)n1 | 16 (≈ 36.1 µM) |
| Cc1c(S(=O)(=O)NC2CCN(Cc3ccccc3)CC2)csc1C(=O)Nc1ccc(Br)cc1C(=O)O | > 128 |
| N#Cc1ccc(NC(=O)c2cc(-c3ccccc3Oc3cccc(-c4ccccc4)c3)on2)c(C(=O)O)c1 | > 128 |
| Cn1c(C(=O)Nc2ccc(C#N)cc2C(=O)O)cc2cccc(NS(C)(=O)=O)c21 | 0.5 (≈ 1.21 µM) |
| Cc1nc(C)c(S(=O)(=O)Nc2cccc3cc(C(=O)Nc4ccc(C#N)cc4C(=O)O)n(C)c23)s1 | 0.5 (≈ 0.981 µM) |
| CC(C)c1ccc(CC(=O)Nc2cccc3cc(C(=O)Nc4ccc(C#N)cc4C(=O)O)[nH]c23)cc1 | 0.5 (≈ 1.04 µM) |
| N#Cc1ccc(NC(=O)c2cc3cccc(NC(=O)COCc4ccccc4)c3[nH]2)c(C(=O)O)c1 | 1 (≈ 2.13 µM) |
| COCOCC(OCOC)C(Cc1cnc(C(=O)Nc2ccc(Br)cc2C(=O)O)cn1)OC (stereo not shown) | > 128 |
| N#Cc1ccc(NC(=O)c2cc3ccccc3o2)c(C(=O)O)c1 | 2 (≈ 6.53 µM) |
| Cc1sc(C(=O)Nc2ccc(Br)cc2C(=O)O)cc1S(=O)(=O)N1CC2CC1CN2Cc1ccccc1 (stereo not shown) | 16 (≈ 27.1 µM) |
| N#Cc1ccc(NC(=O)c2cc3cccc(NC(=O)Cc4c(Cl)cccc4Cl)c3[nH]2)c(C(=O)O)c1 | 0.25 (≈ 0.493 µM) |
| N#Cc1ccc(NC(=O)c2ccc(Cl)nc2)c(C(=O)O)c1 | 16 (≈ 53 µM) |
